Experiments:
Assay in all cases: cells
Assay type in all cases: cell-based
CCRF-CEM = tested on: CCRF-CEM
HL-60(TB) = tested on: HL-60(TB)
MOLT-4 = tested on: MOLT-4
RPMI-8226 = tested on: RPMI-8226
SR = tested on: SR
A549/ATCC = tested on: A549/ATCC
EKVX = tested on: EKVX
HOP-62 = tested on: HOP-62
HOP-92 = tested on: HOP-92
NCI-H226 = tested on: NCI-H226
NCI-H322M = tested on: NCI-H322M
NCI-H460 = tested on: NCI-H460
NCI-H522 = tested on: NCI-H522
COLO-205 = tested on: COLO-205
HCC-2998 = tested on: HCC-2998
HCT-116 = tested on: HCT-116
HCT-15 = tested on: HCT-15
HT29 = tested on: HT29
SW-620 = tested on: SW-620
SF-295 = tested on: SF-295
SF-539 = tested on: SF-539
SNB-19 = tested on: SNB-19
SNB-75 = tested on: SNB-75
U251 = settings: Homo sapiens
[1] = Homo sapiens, 5 doses, read-out: LC50 (the source's name)
[2] = Homo sapiens, read-out: growth inhibition % (GI%)

## O=C(CSc1nc2ccccc2c(=O)n1-c1ccc(Cl)cc1)NN=Cc1ccc(Oc2ccc(Cl)cc2)cc1 [6d, N'-(4–(4-chlorophenoxy)benzylidene)-2-((3–(4-chlorophenyl)-4-oxo-3,4-dihydroquinazolin-2-yl)thio)acetohydrazide]
CCRF-CEM; 5 doses
  TGI: 48.5 µM
CCRF-CEM; Homo sapiens
  GI50: 3.09 µM
CCRF-CEM; [1]
  CC50: > 100 µM
CCRF-CEM; [2]
  inhibition at 10 µM: > 100%
HL-60(TB); HL-60(TB), 5 doses
  TGI: 37.0 µM
HL-60(TB); Homo sapiens, HL-60
  GI50: 16 µM
HL-60(TB); Homo sapiens, HL-60, read-out: growth inhibition % (GI%)
  inhibition at 10 µM: < 15%
HL-60(TB); Homo sapiens, HL-60(TB), 5 doses, read-out: LC50 (the source's name)
  CC50: 85.7 µM
MOLT-4; Homo sapiens, MOLT-4
  GI50: 2.29 µM
MOLT-4; Homo sapiens, MOLT-4, read-out: growth inhibition % (GI%)
  inhibition at 10 µM: > 100%
MOLT-4; Homo sapiens, MOLT-4, 5 doses, read-out: LC50 (the source's name)
  CC50: 44.7 µM
MOLT-4; MOLT-4, 5 doses
  TGI: 9.23 µM
RPMI-8226; Homo sapiens, RPMI-8226
  GI50: 2.98 µM
RPMI-8226; Homo sapiens, RPMI-8226, read-out: growth inhibition % (GI%)
  inhibition at 10 µM: 75.3%
RPMI-8226; Homo sapiens, RPMI-8226, 5 doses, read-out: LC50 (the source's name)
  CC50: > 100 µM
RPMI-8226; RPMI-8226, 5 doses
  TGI: 15.8 µM
SR; 5 doses
  TGI: 6.86 µM
SR; Homo sapiens
  GI50: 1.84 µM
SR; [1]
  CC50: 31.9 µM
SR; [2]
  inhibition at 10 µM: 67.1%
A549/ATCC; A549/ATCC, 5 doses
  TGI: 14.0 µM
A549/ATCC; Homo sapiens, A549
  GI50: 3.25 µM
A549/ATCC; Homo sapiens, A549, read-out: growth inhibition % (GI%)
  inhibition at 10 µM: 83.5%
A549/ATCC; Homo sapiens, A549/ATCC, 5 doses
  LC50 (lethal concentration, 50% cell kill): 83.3 µM
EKVX; 5 doses
  TGI: 13.9 µM
EKVX; Homo sapiens
  GI50: 3.1 µM
EKVX; Homo sapiens, 5 doses
  LC50: 63.6 µM
EKVX; [2]
  inhibition at 10 µM: 59.2%
HOP-62; HOP-62, 5 doses
  TGI: 4.05 µM
HOP-62; Homo sapiens, HOP-62
  GI50: 1.69 µM
HOP-62; Homo sapiens, HOP-62, read-out: growth inhibition % (GI%)
  inhibition at 10 µM: 67.4%
HOP-62; Homo sapiens, HOP-62, 5 doses, read-out: LC50 (the source's name)
  CC50: 9.69 µM
HOP-92; HOP-92, 5 doses
  TGI: 5.62 µM
HOP-92; Homo sapiens, HOP-92
  GI50: 2.07 µM
HOP-92; Homo sapiens, HOP-92, read-out: growth inhibition % (GI%)
  inhibition at 10 µM: 97.4%
HOP-92; Homo sapiens, HOP-92, 5 doses
  LC50 (concentration killing 50% of cells): 22.8 µM
NCI-H226; Homo sapiens, NCI-H226
  GI50: 2.46 µM
NCI-H226; Homo sapiens, NCI-H226, read-out: growth inhibition % (GI%)
  inhibition at 10 µM: 24.4%
NCI-H226; Homo sapiens, NCI-H226, 5 doses
  LC50 (NCI-60 50% lethal concentration): 33.2 µM
NCI-H226; NCI-H226, 5 doses
  TGI: 6.59 µM
NCI-H322M; 5 doses
  TGI: 15.0 µM
NCI-H322M; Homo sapiens
  GI50: 3.02 µM
NCI-H322M; [1]
  CC50: 90.8 µM
NCI-H322M; [2]
  inhibition at 10 µM: < 15%
NCI-H460; Homo sapiens, NCI-H460
  GI50: 0.789 µM
NCI-H460; Homo sapiens, NCI-H460, read-out: growth inhibition % (GI%)
  inhibition at 10 µM: > 100%
NCI-H460; Homo sapiens, NCI-H460, 5 doses
  LC50 (concentration killing 50% of cells): 7.78 µM
NCI-H460; NCI-H460, 5 doses
  TGI: 2.6 µM
NCI-H522; Homo sapiens, NCI-H522
  GI50: 2.34 µM
NCI-H522; Homo sapiens, NCI-H522, read-out: growth inhibition % (GI%)
  inhibition at 10 µM: 79.3%
NCI-H522; Homo sapiens, NCI-H522, 5 doses, read-out: LC50 (the source's name)
  CC50: 42.6 µM
NCI-H522; NCI-H522, 5 doses
  TGI: 8.31 µM
COLO-205; COLO 205, 5 doses
  TGI: 8.74 µM
COLO-205; Homo sapiens, COLO 205
  GI50: 2.79 µM
COLO-205; Homo sapiens, COLO 205, read-out: growth inhibition % (GI%)
  inhibition at 10 µM: 85.4%
COLO-205; Homo sapiens, COLO 205, 5 doses
  LC50: 91.6 µM
HCC-2998; HCC-2998, 5 doses
  TGI: 3.81 µM
HCC-2998; Homo sapiens, HCC 2998
  GI50: 1.92 µM
HCC-2998; Homo sapiens, HCC 2998, read-out: growth inhibition % (GI%)
  inhibition at 10 µM: 79.7%
HCC-2998; Homo sapiens, HCC-2998, 5 doses
  LC50 (lethal concentration 50%): 7.57 µM
HCT-116; HCT-116, 5 doses
  TGI: 3.74 µM
HCT-116; Homo sapiens, HCT-116
  GI50: 1.55 µM
HCT-116; Homo sapiens, HCT-116, read-out: growth inhibition % (GI%)
  inhibition at 10 µM: > 100%
HCT-116; Homo sapiens, HCT-116, 5 doses, read-out: LC50 (the source's name)
  CC50: 9.03 µM
HCT-15; HCT-15, 5 doses
  TGI: 7.48 µM
HCT-15; Homo sapiens, HCT-15
  GI50: 2.41 µM
HCT-15; Homo sapiens, HCT-15, read-out: growth inhibition % (GI%)
  inhibition at 10 µM: 89.6%
HCT-15; Homo sapiens, HCT-15, 5 doses
  LC50 (concentration causing 50% net cell kill): 28.5 µM
HT29; HT29, 5 doses
  TGI: 11.1 µM
HT29; Homo sapiens, HT-29
  GI50: 2.14 µM
HT29; Homo sapiens, HT-29, read-out: growth inhibition % (GI%)
  inhibition at 10 µM: 98.2%
HT29; Homo sapiens, HT-29, HT29, 5 doses
  LC50 (concentration giving 50% net cell kill): > 100 µM
SW-620; Homo sapiens, SW-620
  GI50: 1.81 µM
SW-620; Homo sapiens, SW-620, read-out: growth inhibition % (GI%)
  inhibition at 10 µM: 97.4%
SW-620; Homo sapiens, SW-620, 5 doses, read-out: LC50 (the source's name)
  CC50: 42.4 µM
SW-620; SW-620, 5 doses
  TGI: 7.84 µM
SF-295; Homo sapiens, SF-295
  GI50: 3.61 µM
SF-295; Homo sapiens, SF-295, read-out: growth inhibition % (GI%)
  inhibition at 10 µM: 35.3%
SF-295; Homo sapiens, SF-295, 5 doses, read-out: LC50 (the source's name)
  CC50: 36.4 µM
SF-295; SF-295, 5 doses
  TGI: 13.3 µM
SF-539; Homo sapiens, SF-539
  GI50: 2.54 µM
SF-539; Homo sapiens, SF-539, read-out: growth inhibition % (GI%)
  inhibition at 10 µM: 30.3%
SF-539; Homo sapiens, SF-539, 5 doses, read-out: LC50 (the source's name)
  CC50: 21.5 µM
SF-539; SF-539, 5 doses
  TGI: 6.32 µM
SNB-19; Homo sapiens, SNB-19
  GI50: 3.36 µM
SNB-19; Homo sapiens, SNB-19, read-out: growth inhibition % (GI%)
  inhibition at 10 µM: 71.5%
SNB-19; Homo sapiens, SNB-19, 5 doses, read-out: LC50 (the source's name)
  CC50: 53.2 µM
SNB-19; SNB-19, 5 doses
  TGI: 12.7 µM
SNB-75; Homo sapiens, SNB-75
  GI50: 3.99 µM
SNB-75; Homo sapiens, SNB-75, read-out: growth inhibition % (GI%)
  inhibition at 10 µM: 42.1%
SNB-75; Homo sapiens, SNB-75, 5 doses, read-out: LC50 (the source's name)
  CC50: > 100 µM
SNB-75; SNB-75, 5 doses
  TGI: 29.2 µM
U251; U-251
  GI50: 1.65 µM
U251; U-251, read-out: growth inhibition % (GI%)
  inhibition at 10 µM: > 100%

Source: publication PMC9518264, “Design and synthesis of novel quinazolinone-based derivatives as EGFR inhibitors with antitumor activity” (Journal of Enzyme Inhibition and Medicinal Chemistry, 2022)
